Patent US11000033B2, “Ketone or oxime compound, and herbicide” (NISSAN CHEMICAL CORPORATION, priority 2014, dated 2021)

Legend:
Type in all cases: in vivo
Chenopodium album = assay: Test Example 5: herbicidal effect by foliage application, plastic box (symbol O); details: 320 g/ha, 3 weeks after application
Procedure, shortened: (§1)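 Greenhouse foliar test: seedlings at 14 days, grown 25° C. to 30° C. in sterilized diluvial soil; compound applied as an aqueous dilution of an emulsion; response read 3 weeks after spraying.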

[1] = system: Echinochloa crus-galli var. crus-galli; assay: Test Example 4: herbicidal effect by soil treatment (symbol H); details: application herbicide amount 320 g/ha
Procedure, shortened: (§2)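 Seeds were sown in sterilized diluvial soil, covered with about 1.5 cm of soil, and the soil surface was sprayed with a water-diluted emulsion of the compound at a predetermined rate. Plants grew in a greenhouse at 25° C. to 30° C.; effects were scored visually 3 weeks after application.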

corn [2] = assay: Test Example 4: effect on crop by soil treatment (symbol c); details: application herbicide amount 320 g/ha
Procedure, shortened: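 Soil-treatment setup: crop and weed seeds were spot-sown into sterilized diluvial soil, then buried beneath approximately 1.5 cm of it, and the boxes were housed in a 25–30° C. greenhouse.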

Lolium multiflorum Lam. [3] = assay: Test Example 5: herbicidal effect by foliage application, plastic box (symbol K); details: 320 g/ha, 3 weeks after application
Procedure, shortened: as §1

Abutilon theophrasti [4] = assay: Test Example 5: herbicidal effect by foliage application, plastic box (symbol M); details: 320 g/ha, 3 weeks after application
Procedure, shortened: as §1

Stellaria media = assay: Test Example 5: herbicidal effect by foliage application, plastic box (symbol P); details: 320 g/ha, 3 weeks after application
Procedure, shortened: as §1

corn [5] = assay: Test Example 5: effect on crop by foliage application, plastic box (symbol c); details: 320 g/ha, 3 weeks after application
Procedure, shortened: (§3)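 Greenhouse test at 25° C. to 30° C. Seeds of crops and weeds were spot-sown in boxes of sterilized diluvial soil under roughly 1.5 cm soil cover, then grown for foliage treatment.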

Lolium multiflorum Lam. [6] = assay: Test Example 4: herbicidal effect by soil treatment (symbol K); details: application herbicide amount 320 g/ha
Procedure, shortened: as §2

soybean = assay: Test Example 4: effect on crop by soil treatment (symbol d); details: application herbicide amount 320 g/ha
Procedure, shortened: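 Plants grew in a 25° C. to 30° C. greenhouse after spot-sowing of seeds, including beet, rapeseed, wheat and rice, into sterilized diluvial soil under roughly 1.5 cm of cover soil.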

Apera spica-venti = assay: Test Example 5: herbicidal effect by foliage application, plastic box (symbol L); details: 320 g/ha, 3 weeks after application
Procedure, shortened: as §1

[7] = system: directly sowed rice plant; assay: Test Example 3: effect on crop by foliage application, Wagner pot (symbol b); details: application herbicide amount 320 g/ha
Procedure, shortened: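 Alluvial soil in a 1/10000-are Wagner pot was flooded to a water depth of 0.1–0.5 cm. Echinochloa crus-galli var. crus-galli, Leptochloa chinensis, Cyperus difformis and rice were sown into it and grown in a greenhouse at 25–30 °C.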

Abutilon theophrasti [8] = assay: Test Example 4: herbicidal effect by soil treatment (symbol M); details: application herbicide amount 320 g/ha
Procedure, shortened: as §2

Leptochloa chinensis = assay: Test Example 3: herbicidal effect by foliage application, Wagner pot (symbol D); details: application herbicide amount 320 g/ha
Procedure, shortened: (§4)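 Foliar spray of a water-diluted emulsion at a predetermined herbicide amount, applied to 14-day-old plants. Seedlings were raised in flooded alluvial soil (0.1–0.5 cm water) at 25–30 °C in a greenhouse. Injury was rated after 3 weeks against fixed criteria.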

Setaria viridis = assay: Test Example 5: herbicidal effect by foliage application, plastic box (symbol G); details: 320 g/ha, 3 weeks after application
Procedure, shortened: as §1

wheat = assay: Test Example 5: effect on crop by foliage application, plastic box (symbol e); details: 320 g/ha, 3 weeks after application
Procedure, shortened: as §3

rapeseed = assay: Test Example 5: effect on crop by foliage application, plastic box (symbol g); details: 320 g/ha, 3 weeks after application
Procedure, shortened: as §3

beet = assay: Test Example 5: effect on crop by foliage application, plastic box (symbol f); details: 320 g/ha, 3 weeks after application
Procedure, shortened: as §3

Avena fatua = assay: Test Example 5: herbicidal effect by foliage application, plastic box (symbol I); details: 320 g/ha, 3 weeks after application
Procedure, shortened: as §1

Cyperus difformis = assay: Test Example 3: herbicidal effect by foliage application, Wagner pot (symbol E); details: application herbicide amount 320 g/ha
Procedure, shortened: as §4

Amaranthus retroflexus = assay: Test Example 4: herbicidal effect by soil treatment (symbol N); details: application herbicide amount 320 g/ha
Procedure, shortened: as §2

Digitaria ciliaris = assay: Test Example 4: herbicidal effect by soil treatment (symbol F); details: application herbicide amount 320 g/ha
Procedure, shortened: as §2

SMILES | O: Chenopodium album, herbicidal effect grade (Chenopodium album) | H: Echinochloa crus-galli var. crus-galli, herbicidal effect grade [1] | c: corn, effect on crop grade (corn [2]) | K: Lolium multiflorum Lam., herbicidal effect grade (Lolium multiflorum Lam. [3]) | M: Abutilon theophrasti, herbicidal effect grade (Abutilon theophrasti [4]) | P: Stellaria media, herbicidal effect grade (Stellaria media) | c: corn, effect on crop grade (corn [5]) | K: Lolium multiflorum Lam., herbicidal effect grade (Lolium multiflorum Lam. [6]) | d: soybean, effect on crop grade (soybean) | L: Apera spica-venti, herbicidal effect grade (Apera spica-venti) | effect on crop b (directly sowed rice plant), grade 0-5 [7] | M: Abutilon theophrasti, herbicidal effect grade (Abutilon theophrasti [8]) | herbicidal effect on D (Leptochloa chinensis), grade 0-5 (Leptochloa chinensis) | G: Setaria viridis, herbicidal effect grade (Setaria viridis) | e: wheat, effect on crop grade (wheat) | g: rapeseed, effect on crop grade (rapeseed) | f: beet, effect on crop grade (beet) | I: Avena fatua, herbicidal effect grade (Avena fatua) | herbicidal effect on E, grade 0-5 (Cyperus difformis) | N: Amaranthus retroflexus, herbicidal effect grade (Amaranthus retroflexus) | also measured
CON=C(C)CC1CC(O)=C(c2c(C)cc(C)cc2Br)C1=O (stereo not drawn) [6-038] | 3 (Herbicidal ratio of 40% or higher and lower than 70%) | 5 (Herbicidal ratio of 90% or more (almost completely withered)) | 5 (Herbicidal ratio of 90% or more (almost completely withered)) | 5 (Herbicidal ratio of 90% or more (almost completely withered)) | 5 (Herbicidal ratio of 90% or more (almost completely withered)) | 4 (Herbicidal ratio of 70% or higher and lower than 90%) | 5 (Herbicidal ratio of 90% or more (almost completely withered)) | 5 (Herbicidal ratio of 90% or more (almost completely withered)) | 1 (Herbicidal ratio of 5% or higher and lower than 20%) | 5 (Herbicidal ratio of 90% or more (almost completely withered)) | 5 (Herbicidal ratio of 90% or more (almost completely withered)) | 5 (Herbicidal ratio of 90% or more (almost completely withered)) | 5 (Herbicidal ratio of 90% or more (almost completely withered)) | 5 (Herbicidal ratio of 90% or more (almost completely withered)) | 3 (Herbicidal ratio of 40% or higher and lower than 70%) | 5 (Herbicidal ratio of 90% or more (almost completely withered)) | 0 (Herbicidal ratio of 5% or lower (almost no effect)) | 5 (Herbicidal ratio of 90% or more (almost completely withered)) | 5 (Herbicidal ratio of 90% or more (almost completely withered)) | 4 (Herbicidal ratio of 70% or higher and lower than 90%) | F: Digitaria ciliaris, herbicidal effect grade (Digitaria ciliaris): 5 (Herbicidal ratio of 90% or more (almost completely withered))
CON=C(C)CC1CC(O)=C(c2c(C)cc(OCC(F)(F)F)cc2C)C1=O (stereo not drawn) [6-049] | 5 (Herbicidal ratio of 90% or more (almost completely withered)) | 5 (Herbicidal ratio of 90% or more (almost completely withered)) | 5 (Herbicidal ratio of 90% or more (almost completely withered)) | 5 (Herbicidal ratio of 90% or more (almost completely withered)) | 3 (Herbicidal ratio of 40% or higher and lower than 70%) | 5 (Herbicidal ratio of 90% or more (almost completely withered)) | 5 (Herbicidal ratio of 90% or more (almost completely withered)) | 5 (Herbicidal ratio of 90% or more (almost completely withered)) | 0 (Herbicidal ratio of 5% or lower (almost no effect)) | 5 (Herbicidal ratio of 90% or more (almost completely withered)) | 5 (Herbicidal ratio of 90% or more (almost completely withered)) | 4 (Herbicidal ratio of 70% or higher and lower than 90%) | 5 (Herbicidal ratio of 90% or more (almost completely withered)) | 5 (Herbicidal ratio of 90% or more (almost completely withered)) | 5 (Herbicidal ratio of 90% or more (almost completely withered)) | 5 (Herbicidal ratio of 90% or more (almost completely withered)) | 4 (Herbicidal ratio of 70% or higher and lower than 90%) | 0 (Herbicidal ratio of 5% or lower (almost no effect)) | 5 (Herbicidal ratio of 90% or more (almost completely withered)) | 4 (Herbicidal ratio of 70% or higher and lower than 90%) | F: Digitaria ciliaris, herbicidal effect grade (Digitaria ciliaris): 5 (Herbicidal ratio of 90% or more (almost completely withered))
